# In paper PMC10774418, “A cyclin D1 intrinsically disordered domain accesses modified histone motifs to govern gene transcription” (Oncogenesis, 2024):
# How the values were obtained:
# [1] = system: γ-H2AX in cyclin D1^-/- rescue MEFs; experiment: γ-H2AX abundance / H2A Ser139 phosphorylation after doxorubicin; type: cell-based, mouse; settings: cyclin D1^WT rescued cyclin D1^-/- MEFs, p20 and p21, Western blot
# Procedure: Whole-cell lysates (50 μg) were separated by 10% SDS-PAGE gel, and the proteins were transferred to nitrocellulose membrane for Western blotting using the following antibodies: anti-FLAG antibody (M2 Aldrich, #F1804, St. Louis, MO), anti-GST (Cell Signaling, #2624, Danvers, MA), anti-β-tubulin (Santa Cruz Biotechnology, #sc-55529, Santa Cruz, CA), anti-Vinculin (Sigma-Aldrich, #V9131 St. Louis, MO), Topoisomerase 2 A (Santa Cruz Biotechnology, #sc-365916, Santa Cruz, CA), Histone 2B Serine 14 P (Santa Cruz Biotechnology, #sc-31671, Santa Cruz, CA), Histone 2B (Santa Cruz Biotechnology, #sc-10808, Santa Cruz, CA), γH2A.X (Cell Signaling, #9718, Danvers, MA) and H2A.X (Cell Signaling, #2595, Danvers, MA).
# [2] = system: cyclin D1-/- 3T3 rescue cells; experiment: Etoposide sensitivity (cell viability); type: cell-based, mouse; settings: 5, 10 µM, 24 h, N=6
# CDK4 = experiment: Mammalian two-hybrid, 293 T; type: cell-based, human; settings: 293 T cells, Fig. S7
# Procedure: Mammalian two-hybrid was conducted following the manufacturer’s instruction (Promega, Madison, WI). The human CDK4 cDNA was cloned into pBIND vector, and the human cyclin D1 cDNA (wild type or mutants) was cloned into pACT vector to generate fusion proteins with the DNA-binding domain of Gal4 (Gal4-CDK4), and the activation domain of VP16 (VP16-cyclin D1), respectively. Gal4-CDK4, VP16-cyclin D1 and pG5-Luc reporter containing five copies of Gal4 binding sites upstream of a minimal TATA box and the firefly luciferase gene (Promega) were co-transfected into MCF-7 or HEK-293T cells with Superfect reagent 48 h after transfection, the cells were lysed, and the amount of luciferase activity was quantitated. Transfection efficiency was normalized using renilla luciferase.
Compound,CDK4 binding (CDK4),other results
COc1cccc2c1C(=O)c1c(O)c3c(c(O)c1C2=O)C[C@@](O)(C(=O)CO)C[C@@H]3O[C@H]1C[C@H](N)[C@H](O)[C@H](C)O1 [doxorubicin],,γ-H2AX abundance [1]: increased
COc1cc([C@@H]2c3cc4c(cc3[C@@H](O[C@@H]3O[C@@H]5CO[C@@H](C)O[C@H]5[C@H](O)[C@H]3O)[C@H]3COC(=O)[C@H]23)OCO4)cc(OC)c1O [etoposide],,sensitivity to etoposide ([2]; cyclin D1 rescued cells): more sensitive; change in sensitivity to etoposide ([2]; upon deletion of the E domain): modest but significant reduction in sensitivity
E278/280 A: cyclin D1 double point mutant within the E region,maintained enhanced binding,
E278A: cyclin D1 point mutant within the E region,maintained enhanced binding,
E280A: cyclin D1 point mutant within the E region,maintained enhanced binding,
